In PubChem BioAssay (NCI) one finds TGI data, which are given here for eleven compounds.

SMILES strings stand for the structures.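 These data come from cells grown in 96-well plates and exposed to compound for 48 hours at five concentrations. Definition used: TGI = concentration required for complete inhibition of growth.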

Some test systems named below: 786-0 renal; A498 renal; HCT-116 colon; HT29 colon; MDA-MB-231 breast; NCI-H23 lung; RPMI-8226 leukemia; RXF 393 renal; SF-295 CNS; SK-MEL-5 melanoma; TK-10 renal; UACC-257 melanoma; UACC-62 melanoma; SW-620 colon.
What all share (assay): NCI-60 cell line screen, 48 h

Regarding `Cc1ccc(/C=C/C(=O)c2c([O-])on[n+]2-c2ccccc2)cc1`, the TGI is 3.78 µM with 786-0 renal; 17.9 µM in the assay with A498 renal; 3.65 µM with HCT-116 colon; 3.84 µM in the assay with HT29 colon; > 75.2 µM in the assay on MDA-MB-231 breast; 17.5 µM in the assay on NCI-H23 lung. For the same compound, the TGI in the assay with RPMI-8226 leukemia is 6.35 µM; in the assay with RXF 393 renal, 3.65 µM; in the assay on SF-295 CNS it was > 46.4 µM; in the assay with SK-MEL-5 melanoma, > 32.5 µM; with TK-10 renal it was 10.3 µM; with UACC-257 melanoma it was 16 µM. In the assay with UACC-62 melanoma, this compound returned a TGI of 3.12 µM.
On to `O=C1c2ccccc2CC12Cc1cc3c(cc1C2=O)CCC3` (stereo unspecified), for which the TGI in the assay with 786-0 renal, in the assay with A498 renal, in the assay on HCT-116 colon, in the assay with HT29 colon, in the assay on MDA-MB-231 breast and in the assay on NCI-H23 lung was > 100 µM throughout. The TGI with RPMI-8226 leukemia, in the assay on RXF 393 renal, in the assay on SF-295 CNS, in the assay with SK-MEL-5 melanoma, in the assay on SW-620 colon and in the assay with TK-10 renal was > 100 µM in each case. Further, the TGI in the assay on UACC-257 melanoma is > 100 µM.
Turning to `O=C1CCCc2c1c1c(n2Cc2ccccc2)-c2ccccc2C1=O`, the TGI was 66.5 µM with 786-0 renal; 31.1 µM in the assay with HCT-116 colon; > 100 µM in the assay with HT29 colon; 42.9 µM with MDA-MB-231 breast; 32.1 µM with NCI-H23 lung; 24.3 µM in the assay with RPMI-8226 leukemia. For the same compound, the TGI in the assay with RXF 393 renal was > 100 µM; in the assay with SF-295 CNS it was 37.5 µM; in the assay on SK-MEL-5 melanoma it was 40.7 µM; with SW-620 colon, > 100 µM; in the assay with TK-10 renal, 31.4 µM; with UACC-257 melanoma, 32.1 µM. In addition, the TGI in the assay with UACC-62 melanoma worked out at 44.9 µM.
As for `N#Cc1[nH]c(=O)n(-c2ccc(Cl)cc2)c1N`, the TGI in the assay with 786-0 renal, in the assay on A498 renal, in the assay with HCT-116 colon, in the assay with HT29 colon, in the assay with MDA-MB-231 breast and in the assay on NCI-H23 lung was > 10 µM throughout. Further, the TGI in the assay with RPMI-8226 leukemia, with RXF 393 renal, with SF-295 CNS, with SK-MEL-5 melanoma, in the assay on TK-10 renal and in the assay on UACC-257 melanoma was > 10 µM in each case. For the same compound, in the assay on UACC-62 melanoma, the TGI was > 10 µM.
As to `CC(NS(C)(=O)=O)c1ccccc1` (stereo unspecified), the TGI in the assay with 786-0 renal, with HCT-116 colon, with HT29 colon, in the assay with MDA-MB-231 breast, with NCI-H23 lung and in the assay on RPMI-8226 leukemia was > 100 µM throughout. The TGI in the assay with RXF 393 renal, in the assay on SF-295 CNS, with SK-MEL-5 melanoma, with SW-620 colon, with TK-10 renal and in the assay on UACC-257 melanoma was > 100 µM in each case. Also, the TGI in the assay on UACC-62 melanoma was > 100 µM.
`O=C1NC2(CCCCC2)N=C2C(Cl)CCCC12Cl` (stereo unspecified): the TGI with 786-0 renal, in the assay with A498 renal, in the assay on HT29 colon, in the assay with MDA-MB-231 breast, with NCI-H23 lung and in the assay on RPMI-8226 leukemia was > 100 µM in each case. Further, the TGI in the assay on RXF 393 renal, in the assay with SF-295 CNS, in the assay on SK-MEL-5 melanoma, with SW-620 colon, in the assay on TK-10 renal and in the assay with UACC-62 melanoma was > 100 µM each time.
Consider `Cc1csc2nc(-c3ccc([N+](=O)[O-])cc3)c(/C=N/N=C(N)N)n12`, for which the TGI in the assay on 786-0 renal was found to be 3.24 µM; in the assay with A498 renal it was 3.46 µM; in the assay with HCT-116 colon, 3.76 µM; in the assay on HT29 colon, 3.21 µM; with MDA-MB-231 breast it was 3.52 µM; in the assay on NCI-H23 lung, 3.2 µM. Moreover, the TGI in the assay with RPMI-8226 leukemia was 4.12 µM; in the assay on RXF 393 renal, 3.45 µM; with SF-295 CNS, 3.24 µM; in the assay with SK-MEL-5 melanoma it was 3.96 µM; in the assay on TK-10 renal it was 3.9 µM; in the assay on UACC-257 melanoma it was 3.05 µM. This compound displayed a TGI with UACC-62 melanoma of 3.17 µM.
For the compound `CCOP(=O)(Nc1ccc(-c2ccccc2)cc1)OCC`, the TGI in the assay on 786-0 renal, with A498 renal, in the assay with HCT-116 colon, in the assay with HT29 colon, with MDA-MB-231 breast and in the assay with NCI-H23 lung was > 100 µM throughout. The TGI with RPMI-8226 leukemia, with RXF 393 renal, with SF-295 CNS, with SK-MEL-5 melanoma, in the assay with TK-10 renal and in the assay on UACC-257 melanoma was > 100 µM each time. The TGI with UACC-62 melanoma is > 100 µM.
Consider `CCCNC(=S)N/N=C/c1cccc(C)n1`, for which the TGI with 786-0 renal was > 100 µM; in the assay with A498 renal, 87.3 µM; in the assay on HCT-116 colon, 29 µM; with HT29 colon, > 100 µM; in the assay on MDA-MB-231 breast, > 100 µM; in the assay with NCI-H23 lung, > 100 µM. Moreover, the TGI in the assay on RPMI-8226 leukemia, in the assay on RXF 393 renal, in the assay with SF-295 CNS, in the assay with SK-MEL-5 melanoma, with TK-10 renal and in the assay on UACC-257 melanoma was > 100 µM throughout. The compound further yielded a TGI in the assay with UACC-62 melanoma of 57 µM.
Regarding `CCC1CC2CN3CCc4c([nH]c5c(-c6c(OC)ccc7c8c([nH]c67)[C@]6(C(=O)OC)CC7CC(CC)C6N(CC8)C7)c(O)ccc45)[C@](C(=O)OC)(C2)C13` (stereo partly specified), the TGI in the assay on 786-0 renal turned out to be 28 µM; in the assay on A498 renal, 28.7 µM; in the assay on HCT-116 colon it was 25.7 µM; in the assay with HT29 colon, 18.6 µM; in the assay on MDA-MB-231 breast, 47.1 µM; in the assay with NCI-H23 lung, 34.4 µM. Also, the TGI in the assay with RXF 393 renal was 26.8 µM; with SF-295 CNS, 36.1 µM; with SK-MEL-5 melanoma it was 27.4 µM; in the assay on SW-620 colon, 25.6 µM; in the assay with TK-10 renal, 33.4 µM; with UACC-257 melanoma, 47.2 µM. The same compound yielded a TGI in the assay on UACC-62 melanoma of 29.6 µM.
Turning to `CC1CCCC2=C1C(c1ccc(Cl)cc1)n1c(s/c(=C\c3ccc(Cl)cc3)c1=O)=N2` (stereo unspecified), the TGI in the assay with 786-0 renal, in the assay on A498 renal, in the assay on HCT-116 colon, in the assay on HT29 colon, in the assay with MDA-MB-231 breast and with RPMI-8226 leukemia was > 100 µM throughout. Besides, the TGI in the assay on RXF 393 renal, in the assay with SK-MEL-5 melanoma, with SW-620 colon, with TK-10 renal, in the assay on UACC-257 melanoma and with UACC-62 melanoma was > 100 µM each time.
